Laboratory results from patent publication US20200207734A1, “HETEROCYCLIC COMPOUND AND USE THEREOF” (Takeda Pharmaceutical Company Limited, priority 2017, published 2020).

Target: T1, human orexin type 2 receptor (Homo sapiens, UniProt O43614)
T1 construct: human orexin type 2 receptor cDNA was inserted into pcDNA3.1(+) plasmid vector (Invitrogen); expressed in transfected cells
T1 sequence (O43614 1-444): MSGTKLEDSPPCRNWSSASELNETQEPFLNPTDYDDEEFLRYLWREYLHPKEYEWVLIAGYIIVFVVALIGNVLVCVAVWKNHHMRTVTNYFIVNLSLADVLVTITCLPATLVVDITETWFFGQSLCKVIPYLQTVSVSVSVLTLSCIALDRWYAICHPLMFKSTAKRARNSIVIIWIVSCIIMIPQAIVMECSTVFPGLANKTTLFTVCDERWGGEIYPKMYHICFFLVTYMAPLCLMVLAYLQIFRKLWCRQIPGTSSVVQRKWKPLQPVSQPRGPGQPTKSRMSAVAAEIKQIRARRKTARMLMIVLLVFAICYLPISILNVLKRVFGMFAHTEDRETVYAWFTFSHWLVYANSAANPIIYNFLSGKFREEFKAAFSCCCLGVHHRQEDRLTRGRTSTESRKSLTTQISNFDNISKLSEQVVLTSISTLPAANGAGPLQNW
Test: Measurement of orexin type 2 receptor agonist activity (calcium fluorescence, CHO cells expressing hOX2R)
Type: cell-based
Settings: test compound 3 μM; CHO cells expressing human OX2 receptor; DMSO = 0%, orexin A (human) = 100%
Source text: To obtain a cell clone stably expressing human orexin type 2 receptor, human orexin type 2 receptor cDNA was inserted into pcDNA3.1(+) plasmid vector (Invitrogen), and a plasmid DNA for expression of human orexin type 2 receptor (pcDNA3.1(+)/hOX2R) was cloned. The plasmid DNA was introduced into CHO-dhfr cell by an electroporation method, and human orexin type 2 receptor expressing clone cells were obtained by limiting dilution method by using G418 drug resistance as a selection marker.
CHO cells forcibly expressing human OX2 receptor were seeded in each well of 384 well black transparent bottom plate (BD Falcon) at 7,500 cells/well, and cultured for one day in a 5% CO2 incubator at 37° C. After removal of the medium in the cell plate, assay buffer A containing a calcium indicator (HBSS (Thermo Fisher Scientific), 20 mM HEPES (Thermo Fisher Scientific), 0.1% BSA (Wako Pure Chemical Industries, Ltd. or Sigma-Aldrich), 2.5 μg/mL Fluo-4 AM (DOJINDO Chemical), 0.08% Pluronic F127 (DOJINDO Chemical), 1.25 mM probenecid (DOJINDO Chemical)) was added at 30 μL/well. The plate was stood for 30 min in a 5% CO2 incubator at 37° C., and further stood at room temperature for 30 min. A test compound prepared by diluting with assay buffer B (HBSS, 20 mM HEPES, 0.1% BSA) was added at 10 μL/well, and the fluorescence value was measured by FDSSμCELL (Hamamatsu Photonics K.K.) every one sec for 1 min, and thereafter every two sec for 1 min 40 sec. The activity (%) of the test compound was calculated assuming that variation in the fluorescence value when DMSO was added instead of the test compound was 0%, and variation in the fluorescence value when orexin A (human) (PEPTIDE INSTITUTE, INC.) was added at the final concentration of 10 nM was 100%.

OX2R agonist activity (3 μM, %) [%] | Compound
82 | COC(=O)N1CCC[C@H](NS(C)(=O)=O)[C@@H]1Cc1cccc(-c2cccc(F)c2)c1 (relative stereo) [Example 14, methyl cis-2-((3′-fluorobiphenyl-3-yl)methyl)-3-((methylsulfonyl)amino)piperidine-1-carboxylate]
90 | CS(=O)(=O)N[C@H]1CCCN(C(=O)OC2CC2)[C@H]1Cc1cccc(-c2ccccc2)c1 (relative stereo) [Example 126, cyclopropyl cis-2-(biphenyl-3-ylmethyl)-3-((methylsulfonyl)amino)piperidine-1-carboxylate]
24 | CS(=O)(=O)N[C@H]1CCCN(C(=O)Oc2ccccc2)[C@H]1Cc1cccc(-c2ccccc2)c1 (relative stereo) [Example 145, phenyl cis-2-(biphenyl-3-ylmethyl)-3-((methylsulfonyl)amino)piperidine-1-carboxylate]
84 | C=C(C)c1cccc(C[C@H]2[C@@H](NS(C)(=O)=O)CCCN2C(=O)OC)c1 (relative stereo) [Example 55, methyl cis-3-((methylsulfonyl)amino)-2-(3-(prop-1-en-2-yl)benzyl)piperidlne-1-carboxylate]
72 | COC(=O)N1CCC[C@H](NS(C)(=O)=O)[C@@H]1Cc1cccc(-c2ccc3c(cnn3C)c2)c1 (relative stereo) [Example 53, methyl cis-2-(3-(1-methyl-1H-indazol-5-yl)benzyl)-3-((methylsulfonyl)amino)piperidine-1-carboxylate]
74 | COC(=O)N1CC[C@H](NS(C)(=O)=O)[C@@H]1Cc1cccc(-c2ccccc2)c1 (relative stereo) [Example 61, methyl cis-2-(biphenyl-3-ylmethyl)-3-((methylsulfonyl)amino)pyrrolidine-1-carboxylate]
106 | CC(C)C(=O)N1CC[C@H](NS(C)(=O)=O)[C@@H]1Cc1cccc(-c2ccccc2)c1 (relative stereo) [Example 209, N-(cis-2-(biphenyl-3-ylmethyl)-1-isobutyrylpyrrolidin-3-yl)methanesulfonamide]
101 | CS(=O)(=O)N[C@H]1CCN(C(=O)C2CCC2)[C@H]1Cc1cccc(-c2cccc(F)c2)c1 [Example 262, N-((2S,3S)-1-(cyclobutylcarbonyl)-2-((3′-fluorobiphenyl-3-yl)methyl)pyrrolidin-3-yl)methanesulfonamide]

Continued, compound first:

Compound | OX2R agonist activity (3 μM, %) [%]
CCCS(=O)(=O)N[C@H]1CCCN(C(=O)OC(C)C)[C@H]1Cc1cccc(-c2ccccc2)n1 (relative stereo) [Example 173, isopropyl cis-2-((6-phenylpyridin-2-yl)methyl)-3-((propylsulfonyl)amino)piperidine-1-carboxylate] | 68
CS(=O)(=O)N[C@H]1CCN(C(=O)C2(O)CCC2)[C@H]1Cc1csc(-c2cc(F)cc(F)c2)n1 (relative stereo) [Example 323, N-(cis-2-((2-(3,5-difluorophenyl)-1,3-thiazol-4-yl)methyl)-1-((1-hydroxycyclobutyl)carbonyl)pyrrolidin-3-yl)methanesulfonamide] | 109
CC(C)C(=O)N1CC[C@H](NS(C)(=O)=O)[C@@H]1Cc1cccc(-c2cc(F)cc(F)c2)c1F [Example 402, N-((2S,3S)-1-isobutyryl-2-((2,3′,5′-trifluorobiphenyl-3-yl)methyl)pyrrolidin-3-yl)methanesulfonamide] | 107
CS(=O)(=O)N[C@H]1CCN(C(=O)C2(O)CCC2)[C@H]1Cc1cccc(-c2cc(F)cc(F)c2)c1 [Example 344, N-((2S,3S)-2-((3′,5′-difluorobiphenyl-3-yl)methyl)-1-((1-hydroxycyclobutyl)carbonyl)pyrrolidin-3-yl)methanesulfonamide] | 99
CS(=O)(=O)N[C@H]1CCN(C(=O)N2CCC2)[C@H]1Cc1cccc(-c2cccc(F)c2)c1F [Example 352, N-((2S,3S)-1-(azetidin-1-ylcarbonyl)-2-((2,3′-difluorobiphenyl-3-yl)methyl)pyrrolidin-3-yl)methanesulfonamide] | 102
CS(=O)(=O)N[C@H]1CCN(C(=O)C2(O)CCC2)[C@H]1Cc1csc(-c2cc(F)cc(F)c2)n1 [Example 339, N-((2S,3S)-2-((2-(3,5-difluorophenyl)-1,3-thiazol-4-yl)methyl)-1-((1-hydroxycyclobutyl)carbonyl)pyrrolidin-3-yl)methanesulfonamide] | 102
CC(C)(O)C(=O)N1CC[C@H](NS(C)(=O)=O)[C@@H]1Cc1cccc(-c2cc(F)cc(F)c2)c1F [Example 395, N-((2S,3S)-1-(2-hydroxy-2-methylpropanoyl)-2-((2,3′,5′-trifluorobiphenyl-3-yl)methyl)pyrrolidin-3-yl)methanesulfonamide] | 104
CS(=O)(=O)N[C@H]1CCN(C(=O)C2CCC2)[C@H]1Cc1csc(-c2cc(F)cc(F)c2)n1 (relative stereo) [Example 258, N-(cis-1-(cyclobutylcarbonyl)-2-((2-(3,5-difluorophenyl)-1,3-thiazol-4-yl)methyl)pyrrolidin-3-yl)methanesulfonamide] | 95
CC(C)OC(=O)N1CCC[C@H](NS(C)(=O)=O)[C@@H]1Cc1cccc2c1oc1ccccc12 (relative stereo) [Example 78, isopropyl cis-2-(dibenzo[b,d]furan-4-ylmethyl)-3-((methylsulfonyl)amino)piperidine-1-carboxylate] | 35
CC(C)(O)C(=O)N1CC[C@H](NS(C)(=O)=O)[C@@H]1Cc1cccc(-c2cccc(F)c2)c1F [Example 387, N-((2S,3S)-2-((2,3′-difluorobiphenyl-3-yl)methyl)-1-(2-hydroxy-2-methylpropanoyl)pyrrolidin-3-yl)methanesulfonamide] | 106
CS(=O)(=O)N[C@H]1CCN(C(=O)C2CCC2)[C@H]1Cc1csc(-c2cccc(F)c2)n1 [Example 320, N-((2S,3S)-1-(cyclobutylcarbonyl)-2-((2-(3-fluorophenyl)-1,3-thiazol-4-yl)methyl)pyrrolidin-3-yl)methanesulfonamide] | 103
CS(=O)(=O)N[C@H]1CCN(C(=O)C2(O)CCC2)[C@H]1Cc1cccc(-c2cccc(F)c2)n1 (relative stereo) [Example 338, N-(cis-2-((6-(3-fluorophenyl)pyridin-2-yl)methyl)-1-((1-hydroxycyclobutyl)carbonyl)pyrrolidin-3-yl)methanesulfonamide] | 103
CCS(=O)(=O)N[C@H]1CCN(C(=O)N(C)C)[C@H]1Cc1cccc(-c2cccc(F)c2)c1F [Example 373, (2S,3S)-2-((2,3′-difluorobiphenyl-3-yl)methyl)-3-((ethylsulfonyl)amino)-N,N-dimethylpyrrolidine-1-carboxamide] | 96
O=C(N1CCC1)N1CC[C@H](NS(=O)(=O)C2CC2)[C@@H]1Cc1cccc(-c2ccccc2)c1 [Example 463, N-{(2S,3S)-1-(azetidine-1-carbonyl)-2-[([1,1′-biphenyl]-3-yl)methyl]pyrrolidin-3-yl}cyclopropanesulfonamide] | 105
O=C(N1CCC1)N1CC[C@H](NS(=O)(=O)CF)[C@@H]1Cc1cccc(-c2cccc(F)c2)c1 [Example 459, N-{(2S,3S)-1-(azetidine-1-carbonyl)-2-[(3′-fluoro[1,1′-biphenyl]-3-yl)methyl]pyrrolidin-3-yl}-1-fluoromethanesulfonamide] | 93
CCNC(=O)N1CCC[C@H](NS(C)(=O)=O)[C@@H]1Cc1cccc(OC2CCCCC2)c1 (relative stereo) [Example 7, cis-2-(3-(cyclohexyloxy)benzyl)-N-ethyl-3-((methylsulfonyl)amino)piperidine-1-carboxamide] | 62
CS(=O)(=O)N[C@H]1CCN(C(=O)C2CC2)[C@H]1Cc1cccc(-c2ccccc2)c1 (relative stereo) [Example 206, N-(cis-2-(biphenyl-3-ylmethyl)-1-(cyclopropylcarbonyl)pyrrolidin-3-yl)methanesulfonamide] | 94
